Reference: patent US12071436B2, “Anti-parasitic compounds and uses thereof” (Memorial Sloan-Kettering Cancer Center, priority 2016, dated 2024)
Like-named read-outs stand apart in the source and are kept apart here.

Columns and labels:
[1] = tested on: HepG2 human hepatoma cells; assay: HepG2 cytotoxicity, MTS cell proliferation assay; assay type: cell-based; conditions: 48 h, n=1
Experimental: (§1) Select compounds described herein were evaluated for structure-activity analyses for anti-plasmodial activity in vitro. For Dd2 EC50 (M), calculations were for n=3. For HepG2 EC50 (M), calculations were for n=1. For the human microsomal stability determination, t was 60 minutes.
Selected compounds were evaluated for cytotoxicity using HepG2 human hepatoma cells. A 384-well clear bottom plate was seeded with 2,500 cells/well and incubated for 24 h. Serial dilutions of the compound (were added to the plate and plates were incubated for an additional 48 h. Viability of cells were assessed by MTS [(3-(4,5-dimethylthiazol-2-yl)-5-(3-carboxymethoxyphenyl)-2-(4-sulfophenyl)-2H-tetrazolium) cell proliferation assay (CellTiter 96® Aqueous non-radioactive cell proliferation assay, Promega) (See Cory et al., Cancer Communications, 3, 1991, p. 207-212).

P. falciparum Dd2 = assay: Anti-plasmodial growth inhibition, SYBR green I-based DNA quantification; assay type: cell-based; conditions: Plasmodium falciparum, 72 h incubation, n=3
Experimental: as §1
Different dilutions of the compound in RPMI 1640 (Life Technologies) from a stock of 10 mM in dimethyl sulfoxide (DMSO) were added to the culture at a 1% parasitemia and 2% hematocrit in 96-well black plates (Santa Cruz Biotechnology). Maximum DMSO concentration in the culture never exceeded 0.25%. Chloroquine at 1 μM was used as a positive control to determine the baseline value. Following 72 h incubation at 37° C., the ability of the compounds to inhibit growth of the parasite was determined by a SYBR green I-based DNA quantification assay (See Bennett et al., 2004, Chemother. 48, 1807-1810; see also Johnson et al., 2007, Antimicrob. Agents. Chemother. 51, 1926-1933; Smilkstein et al., 2004, Antimicrob. Agents. Chemother. 48, 1803-1806). EC50 was calculated (n=3) from a dose response curve that was generated from a concentration range of 0-20 μM using GraphPad Prism v5.0.

[2] = Plasma pharmacokinetics and liver distribution study in female BALB/c mice; assay type: in vivo, mouse; conditions: for AUC(0-inf) / Tmax / half-life / Cmax: female, BALB/c, mouse
Experimental: A plasma pharmacokinetics and liver distribution study of selected compounds, including Pyrrolopyridine-008 (2015-foleyc-216), Pyrrolopyridine-D20-ent (2015-foleyc-217), and Pyrrolopyridine-M03 (2015-foleyc-218), in female BALB/c mice was conducted following a single intraperitoneal and oral administration. […] The blood samples were collected from a set of […] mice at each time point in labeled micro centrifuge tube containing K2EDTA as anticoagulant. Plasma samples were separated by centrifugation at 4000 rpm for 10 min and stored below −70° C. until bioanalysis. After collection of blood sample, animals were humanely euthanized by carbon dioxide asphyxiation to collect liver from Group 1 and Group 2 at all the time points. The collected tissues were rinsed in PBS and were homogenized with nine times of liver weight in ice cold phosphate buffer saline (pH 7.4) and stored below −70° C. until bio-analysis. Total homogenate volume was ten times the tissue weight. All samples were processed for analysis by protein precipitation using acetonitrile and analyzed with fit-for-purpose LC-MS/MS method (LLOQ: 2.01 ng/mL for plasma and 50.30 ng/g for liver). Pharmacokinetic parameters were calculated using the non-compartmental analysis tool of Phoenix WinNonlin® (Version 6.3).

[3] = ip, Dose: 100 mg/kg, liver, read-out: PK (ip, plasma/liver) AUCinf, liver
[4] = ip, Dose: 100 mg/kg, liver, read-out: PK (ip, plasma/liver) Tmax, liver
[5] = ip, Dose: 100 mg/kg, liver, read-out: PK (ip, plasma/liver) t1/2, liver (converted)
[6] = ip, Dose: 100 mg/kg, plasma, read-out: PK (ip, plasma/liver) AUCinf, plasma
[7] = ip, Dose: 100 mg/kg, plasma, read-out: PK (ip, plasma/liver) Cmax, plasma
[8] = ip, Dose: 100 mg/kg, plasma, read-out: PK (ip, plasma/liver) Tmax, plasma
[9] = ip, Dose: 100 mg/kg, plasma, read-out: PK (ip, plasma/liver) t1/2, plasma (converted)
[10] = po, Dose: 100 mg/kg, liver, read-out: PK (po, plasma/liver) Area under the curve (AUCinf), liver
[11] = po, Dose: 100 mg/kg, liver, read-out: PK (po, plasma/liver) Tmax, liver
[12] = po, Dose: 100 mg/kg, liver, read-out: PK (po, plasma/liver) t1/2, liver (converted)
[13] = po, Dose: 100 mg/kg, plasma, read-out: PK (po, plasma/liver) Area under the curve (AUCinf), plasma
[14] = po, Dose: 100 mg/kg, plasma, read-out: PK (po, plasma/liver) Cmax, plasma
[15] = po, Dose: 100 mg/kg, plasma, read-out: PK (po, plasma/liver) Tmax, plasma
[16] = po, Dose: 100 mg/kg, plasma, read-out: PK (po, plasma/liver) t1/2, plasma (converted)

Compound CC(C)(C)[S@@+]([O-])N1Cc2cc(C(=O)NCc3ccc4c(c3)OCO4)nc(-c3cccc(-c4cccnc4)c3)c2C1 [2015-foleyc-212, (R)-N-(benzo[d][1,3]dioxol-5-ylmethyl)-2-(tert-butylsulfinyl)-4-(3-(pyridin-3-yl)phenyl)-2,3-dihydro-1H-pyrrolo[3,4-c]pyridine-6-carboxamide] has an EC50 [1] of over 100 µM and an EC50 (P. falciparum Dd2) of over 25 µM.

CC(C)(C)[S@@+]([O-])N1Cc2cc(C(=O)NCc3ccccc3F)nc(-c3cccc(-c4cccnc4)c3)c2C1 [2015-foleyc-213, (R)-2-(tert-butylsulfinyl)-N-(2-fluorobenzyl)-4-(3-(pyridin-3-yl)phenyl)-2,3-dihydro-1H-pyrrolo[3,4-c]pyridine-6-carboxamide] gave an EC50 [1] of over 100 µM and an EC50 (P. falciparum Dd2) of over 25 µM.

With CC(C)(C)[S@@+]([O-])N1Cc2cc(C(=O)NCc3ccc4c(c3)OCO4)nc(-c3cccc(-c4cc5ccccc5o4)c3)c2[C@H]1CCO [2015-foleyc-219, (R)-N-(benzo[d][1,3]dioxol-5-ylmethyl)-4-(3-(benzofuran-2-yl)phenyl)-2-((R)-tert-butylsulfinyl)-3-(2-hydroxyethyl)-2,3-dihydro-1H-pyrrolo[3,4-c]pyridine-6-carboxamide] the EC50 [1] was over 100 µM and the EC50 (P. falciparum Dd2) was 1.39 ± 0.13 µM.

Work on CC(C)(C)[S@@+]([O-])N1Cc2cc(C(=O)NCc3ccccc3F)nc(-c3cccc(-c4cc5ccccc5o4)c3)c2[C@H]1CCO [2015-foleyc-220, (R)-4-(3-(benzofuran-2-yl)phenyl)-2-((R)-tert-butylsulfinyl)-N-(2-fluorobenzyl)-3-(2-hydroxyethyl)-2,3-dihydro-1H-pyrrolo[3,4-c]pyridine-6-carboxamide] yielded an EC50 [1] of over 100 µM and an EC50 (P. falciparum Dd2) of over 25 µM.

CC(C)(C)[S@@+]([O-])N1Cc2cc(C(=O)NCC(F)(F)F)nc(-c3cccc(-c4cc5ccccc5o4)c3)c2[C@H]1CCO [2015-foleyc-226, (R)-4-(3-(benzofuran-2-yl)phenyl)-2-((R)-tert-butylsulfinyl)-3-(2-hydroxyethyl)-N-(2,2,2-trifluoroethyl)-2,3-dihydro-1H-pyrrolo[3,4-c]pyridine-6-carboxamide] showed an EC50 [1] of over 100 µM and an EC50 (P. falciparum Dd2) of over 25 µM.

CC(C)(C)[S@@+]([O-])N1Cc2cc(C(=O)NCC(F)(F)F)nc(-c3cccc(-c4cccnc4)c3)c2[C@H]1CCO [2015-foleyc-237, (R)-2-((R)-tert-butylsulfinyl)-3-(2-hydroxyethyl)-4-(3-(pyridin-3-yl)phenyl)-N-(2,2,2-trifluoroethyl)-2,3-dihydro-1H-pyrrolo[3,4-c]pyridine-6-carboxamide] showed an EC50 [1] of over 100 µM and an EC50 (P. falciparum Dd2) of 5.84 ± 0.94 µM.

Work on CC(C)NC(=O)N1Cc2cc(C(=O)NCc3ccc4c(c3)OCO4)nc(-c3cccc(-c4cc5ccccc5o4)c3)c2[C@H]1CCO [2015-foleyc-241, (R)-N^6-(benzo[d][1,3]dioxol-5-ylmethyl)-4-(3-(benzofuran-2-yl)phenyl)-3-(2-hydroxyethyl)-N^2-isopropyl-1,3-dihydro-2H-pyrrolo[3,4-c]pyridine-2,6-dicarboxamide] yielded an EC50 [1] of over 100 µM and an EC50 (P. falciparum Dd2) of 4.99 ± 0.59 µM.

With CC(C)(C)[S@@+]([O-])N1Cc2cc(C(N)=O)nc(-c3cccc(-c4cccnc4)c3)c2[C@H]1CCO [2015-foleyc-247] the EC50 [1] was over 100 µM and the EC50 (P. falciparum Dd2) was 1.48 ± 0.14 µM.

For CC(C)NC(=O)N1Cc2cc(C(=O)NCC(F)(F)F)nc(-c3cccc(-c4cc5ccccc5o4)c3)c2[C@H]1CCO [drawing 328], the “Relative Bioavailability, Frel (AUCinf po / AUCinf ip)” value ([2]; Dose: 50 mg/kg) was 57%, the AUC(0-inf) ([2]; ip, Dose: 50 mg/kg, liver, read-out: PK (ip, plasma/liver) AUCinf, liver) was 186 µM·h and the Tmax ([2]; ip, Dose: 50 mg/kg, liver, read-out: PK (ip, plasma/liver) Tmax, liver) was 0.1 h. For the same compound, the half-life ([2]; ip, Dose: 50 mg/kg, liver, read-out: PK (ip, plasma/liver) t1/2, liver (converted)) was 2.2 h, the AUC(0-inf) ([2]; ip, Dose: 50 mg/kg, plasma, read-out: PK (ip, plasma/liver) AUCinf, plasma) was 52.7 µM·h and the Cmax ([2]; ip, Dose: 50 mg/kg, plasma, read-out: PK (ip, plasma/liver) Cmax, plasma) was 14 µM. The Tmax ([2]; ip, Dose: 50 mg/kg, plasma, read-out: PK (ip, plasma/liver) Tmax, plasma) was 1 h, the half-life ([2]; ip, Dose: 50 mg/kg, plasma, read-out: PK (ip, plasma/liver) t1/2, plasma (converted)) was 1.2 h and the AUC(0-inf) ([2]; po, Dose: 50 mg/kg, liver, read-out: PK (po, plasma/liver) Area under the curve (AUCinf), liver) was 108 µM·h. The Tmax ([2]; po, Dose: 50 mg/kg, liver, read-out: PK (po, plasma/liver) Tmax, liver) was 0.25 h, the half-life ([2]; po, Dose: 50 mg/kg, liver, read-out: PK (po, plasma/liver) t1/2, liver (converted)) was 3.1 h and the AUC(0-inf) ([2]; po, Dose: 50 mg/kg, plasma, read-out: PK (po, plasma/liver) Area under the curve (AUCinf), plasma) was 29.9 µM·h. The Cmax ([2]; po, Dose: 50 mg/kg, plasma, read-out: PK (po, plasma/liver) Cmax, plasma) was 10.9 µM, the Tmax ([2]; po, Dose: 50 mg/kg, plasma, read-out: PK (po, plasma/liver) Tmax, plasma) was 0.25 h and the half-life ([2]; po, Dose: 50 mg/kg, plasma, read-out: PK (po, plasma/liver) t1/2, plasma (converted)) was 8.2 h. The “PK (ip, plasma/liver) Cmax, liver” value ([2]; ip, Dose: 50 mg/kg, liver) was 58.6 µM and the “PK (po, plasma/liver) Cmax, liver” value ([2]; po, Dose: 50 mg/kg, liver) was 53.8 µM.

In the case of CC(C)(C)[S@@+]([O-])N1Cc2cc(C(=O)NCc3ccc4c(c3)OCO4)nc(-c3cccc(-c4cccnc4)c3)c2[C@H]1CCO [drawing 329], the “Relative Bioavailability, Frel (AUCinf po / AUCinf ip)” value ([2]; Dose: 100 mg/kg) is reported as 49%, the AUC(0-inf) [2, 3] is reported as 667 µM·h and the Tmax [2, 4] is reported as 0.5 h. For the same compound, the half-life [2, 5] was 3.5 h, the AUC(0-inf) [2, 6] was 158 µM·h and the Cmax [2, 7] was 33.4 µM. It also gave a Tmax [2, 8] of 0.5 h, a half-life [2, 9] of 2.4 h and an AUC(0-inf) [2, 10] of 238 µM·h. It also gave a Tmax [2, 11] of 4 h, a half-life [2, 12] of 16.9 h and an AUC(0-inf) [2, 13] of 77.1 µM·h. It also gave a Cmax [2, 14] of 27.6 µM, a Tmax [2, 15] of 1 h and a half-life [2, 16] of 1.1 h. For the same compound, the “PK (ip, plasma/liver) Cmax, liver” value ([2]; ip, Dose: 100 mg/kg, liver) was 87.6 µM and the “PK (po, plasma/liver) Cmax, liver” value ([2]; po, Dose: 100 mg/kg, liver) was 39.6 µM.

With CC(C)(C)[S@@+]([O-])N1Cc2cc(C(=O)NCc3ccccc3F)nc(-c3cccc(-c4cccnc4)c3)c2[C@H]1CCO [drawing 330] the “Relative Bioavailability, Frel (AUCinf po / AUCinf ip)” value ([2]; Dose: 100 mg/kg) was 22%, the AUC(0-inf) [2, 3] was 306 µM·h and the Tmax [2, 4] was 0.25 h. For the same compound, the half-life [2, 5] was 4.6 h, the AUC(0-inf) [2, 6] was 168 µM·h and the Cmax [2, 7] was 72.6 µM. The Tmax [2, 8] was 1 h, the half-life [2, 9] was 1.9 h and the AUC(0-inf) [2, 10] was 125 µM·h. For the same compound, the Tmax [2, 11] was 0.5 h, the half-life [2, 12] was 6.4 h and the AUC(0-inf) [2, 13] was 36.7 µM·h. For the same compound, the Cmax [2, 14] was 56.4 µM, the Tmax [2, 15] was 0.5 h and the half-life [2, 16] was 2.1 h. The “PK (ip, plasma/liver) Cmax, liver” value ([2]; ip, Dose: 100 mg/kg, liver) was 111.3 µM and the “PK (po, plasma/liver) Cmax, liver” value ([2]; po, Dose: 100 mg/kg, liver) was 49.2 µM.

CC(C)(C)[S@+]([O-])N1Cc2cc(C(=O)NCc3ccc4c(c3)OCO4)nc(-c3cccc(-c4cccnc4)c3)c2[C@@H]1CCO [ent-Tan003-008] showed an EC50 (P. falciparum Dd2) of 0.86 ± 0.08 µM.
